Results as given in patent publication US4760023A, “[21-leucine] human urogastrone, corresponding gene, corresponding recombinant plasmid, transformed cell and process for production thereof” (Wakunaga Seiyaku Kabushiki Kaisha, priority 1983, dated 1988).
One block for each substance: values may come before it.

Key:
mouse 3T3 cells [1] = test: Bioassay of activity stimulating thymidine incorporation; type: cell-based; settings: for 3H-Thymidine In-take Amount cpm: 18 hours; for 3H-Thymidine In-take Amount Δcpm: minus no addition
Protocol: Incorporation of thymidine was determined according to a modification of the method of Aharon Aharonov et al [J.B.C., 253, 3970 (1978)] and the method of Jimenez de Asua et al [PNAS, 72, 2724 (1975)]. More specifically, 6×10^3 of mouse 3T3 cells were seeded in 0.5 ml of 5% FBS-DME medium in a multi-well dish, and culturing was done for 5 days to grow as monolayers to sub-confluency. The medium was removed, and the cells were washed with PBS, and 0.5 ml of 0.5% FBS-DME medium was added. Incubation was done overnight. Then, 0.5 ml of 0.5% FBS-DME medium containing [21-L] hUG at a predetermined concentration or mEGF was added, and incubation was further continued for 18 hours. Then, 200 nci of [^3 H]-thymidine was added, and incubation was carried out at 55° C. for 30 minutes. The cells were washed twice with cold HBSS containing 20 mM Hepes (pH 7.4) and washed twice with 5% TCA. Then, 200 μl of 1N NaOH was added, and incubation was carried out at 55° C. for 30 minutes to dissolve DNA. Then, 50 μl of the DNA solution was taken and 25 μl of 2N HCl was added for neutralization. The radio-activity of Thymidine was measured by means of a liquid scintillation counter.

mouse 3T3 cell = target: T1, mouse 3T3 cell (Mus musculus, UniProt Q01279); test: RRA using mouse 3T3 cell; type: binding
T1 construct: endogenous in cells; host or cells: mouse 3T3 cells
Protocol: RPA using mouse 3T3 cell was carried out according to the process of C.

mouse 3T3 cells [2] = test: Bioassay of activity promoting proliferation of mouse 3T3 cells (viable cell count); type: cell-based; settings: 4 days, 0.5% FBS-DME, FIG. 3
Protocol: The activity of promoting proliferation of cells was determined by the following procedure. More specifically, monolayer culturing of mouse 3T3 cells was carried out in a 25-cm^2 flask, and the cells were treated with calcium- and magnesium-free HBSS (CMF-HBSS) containing 0.02% of EDTA and 0.05% of trypsin to prepare cell suspensions. The cells were washed with CMF-HBSS and resuspended in DME medium containing 0.5% of fetal bovine serum (FBS), and the number of viable cells was counted. The cell suspension was diluted with 0.5% FBS-DME medium so that the cell number was 2×10^4 per ml. Then, 1 ml of the cell suspension was seeded per 35 mm dish and incubation was carried out overnight in a CO2 incubator. Peptide fractions containing different concentrations of [21-L] hUG and mEGF as a control were dissolved in 0.5% FBS-DME medium and the mixtures were filtered by a Millipore filter (type GV, wpo 2500), and 1 ml aliquots of the mixtures were added to the above cell suspension. Incubation was carried out for 4 days in a CO2 incubator (5% CO2 -95% air, 37° C.). Viable cells were stained with Trypan Blue, and the number of the viable cells was counted using a counting chamber. […]

[3] = system: ulcer caused by ligation of the pylorus; test: Inhibitory effect on generation of stomach ulcer (pylorus ligation); type: in vivo, rats of the Wister strain; settings: rat
Protocol: The inhibitory effect of [21-L] hUG on generation of ulcer was examined on the basis of the activity of EGF of anti-gastric acid secretion [Gut, 16, 887 (1975)].
7-weeks-old male rats of the Wister strain were bred and caused to fast for 24 hours before ligation of the pylorus. The pylorus was ligated for 17 hours, and ulcer was caused by fasting and abstinence from drinking. The peptide fraction containing [21-L] hUG (corresponding to 500 μg of the protein) or physiological saline as a control was hypodermically injected 30 minutes before ligation of the pylorus. Each group tested consisted of 5 rats, and the anti-ulcer action was evaluated by calculating the ulcer index. More specifically, the long and short diameters of the olcerous erosion generated by ligation of the pylorus were measured under an anatomical microscope, and the sum of products of the long and short diameters per rat was defined as the ulcer coefficient.

KB cell EGF receptor = target: T2, KB cell EGF receptor (Homo sapiens, UniProt P00533); test: Radioreceptor assay (RRA) using KB cells, competition with 125I-mEGF; type: binding; settings: FIG. 2
T2 construct: endogenous in cells; host or cells: KB cells (ATCC No. CCL17), intact cells in suspension
Protocol: RRA of [21-L] hUG was carried out using KB cells (ATCC No. CCL17) derived from a human nasopharyngeal epidermoid carcinoma in the light of the process of A. King et al [see J.B.C., 257, 3053 (1982)]. More specifically, monolayer culturing was carried out in DME medium in a 800-ml flask. The culture medium was removed, and cells were peeled with a phosphate buffer salt solution (PBS) containing 0.05% of EDTA to prepare a cell suspension. Then, the cells were washed 2 times with Hank's balanced salt solution (HBSS) containing 20 mM Hepes (pH 7.4). Then, the cells were suspended in a binding solution (DME medium, 20 mM Hepes, pH 7.4, 0.35 g/l of NaHCO3 and 100 μg/ml of Streptomycin), and the cell number was calculated and the cell density was adjusted to from 300,000 to 400,000 per 0.2 ml of the binding solution. The suspension was poured into tubes (0.2 ml in each tube), and 0.2 ml each of sample containing [21-L] hUG and ^125 I-mEGF (mouse EGF) at various concentrations were added into the tubes, respectively. Incubation was carried out at 37° C. for 1 hour. The cells were washed 3 times with ice-cold HBSS and suspended in 10% TCA, and the cells were separated from the solution by filtration through a glass filter. TCA was removed with acetone, and counting of radioactivity associated with the cells was performed by using a scintillation counter. […]

Substance: mouse epidermal growth factor (NSYPGCPSSYDGYCLNGGVCMHIESLDSYTCNCVIGYSGDRCQTRDLRWWELR; not fully specified; Epidermal growth factor; UniProt P01132 977-1029, looked up) [mEGF, mEGF (Toyobo, Japan), used for comparison]
- 3H-Thymidine In-take Amount cpm (mouse 3T3 cells [1]; 1 ng/ml): 14,510.5 cpm
- 3H-Thymidine In-take Amount Δcpm (mouse 3T3 cells [1]; 1 ng/ml): 9,871.0 cpm
- 3H-Thymidine In-take Amount cpm (mouse 3T3 cells [1]; 2 ng/ml): 13,387.4 cpm
- 3H-Thymidine In-take Amount Δcpm (mouse 3T3 cells [1]; 2 ng/ml): 8,747.9 cpm
- 3H-Thymidine In-take Amount cpm (mouse 3T3 cells [1]; 5 ng/ml): 14,695.2 cpm
- 3H-Thymidine In-take Amount Δcpm (mouse 3T3 cells [1]; 5 ng/ml): 10,055.7 cpm
- 3H-Thymidine In-take Amount cpm (mouse 3T3 cells [1]; 10 ng/ml): 14,094.6 cpm
- 3H-Thymidine In-take Amount Δcpm (mouse 3T3 cells [1]; 10 ng/ml): 9,455.1 cpm

- inhibition of binding of 125I-mEGF to the KB cell EGF receptor (KB cell EGF receptor; 37° C., 1 hour): competitively inhibits binding
- dosage-response curve in RRA compared with mEGF (KB cell EGF receptor): in good agreement with that of mEGF
Substance: [21-leucine] human urogastrone (NSDSECPLSHDGYCLHDGVCLYIEALDKYACNCVVGYIGERCQYRDLKWWELR; Epidermal growth factor; UniProt P01133 971-1023, looked up, variant M21L) [[21-L] hUG, 53-residue polypeptide, same as hUG except that the 21st amino acid is Leu; produced in E. coli, released by cyanogen bromide]
- RRA result using mouse 3T3 cell (mouse 3T3 cell): results similar to the results obtained in RRA using KB cell
- dose-response curve of cell proliferation compared with mEGF (mouse 3T3 cells [2]): in good agreement with the curve for mEGF
- Ulcer Coefficient ([3]; 500 μg of the protein hypodermically 30 minutes before ligation, pylorus ligated 17 hours): 44.5 ± 18.0 mm^2
- generation of the ulcer (in words) ([3]; pylorus ligation): tends to inhibit generation of the ulcer
- 3H-Thymidine In-take Amount cpm (mouse 3T3 cells [1]; 0.73 μg/ml): 17,170.8 cpm
- 3H-Thymidine In-take Amount Δcpm (mouse 3T3 cells [1]; 0.73 μg/ml): 12,531.3 cpm
- 3H-Thymidine In-take Amount cpm (mouse 3T3 cells [1]; 1.46 μg/ml): 11,761.7 cpm
- 3H-Thymidine In-take Amount Δcpm (mouse 3T3 cells [1]; 1.46 μg/ml): 7,122.2 cpm
- 3H-Thymidine In-take Amount cpm (mouse 3T3 cells [1]; 2.93 μg/ml): 13,567.0 cpm
- 3H-Thymidine In-take Amount Δcpm (mouse 3T3 cells [1]; 2.93 μg/ml): 8,927.5 cpm
- thymidine incorporation (in words) (mouse 3T3 cells [1]; mouse 3T3 cells): promotes greatly thymidine incorporation
